In US11434235B2, “Solid form of dihydropyrimidine compound and preparation method therefor and use thereof” (SICHUAN KELUN-BIOTECH BIOPHARMACEUTICAL CO., LTD., priority 2018, dated 2022):

Tests used:
hERG = hERG (Homo sapiens, UniProt Q12809); details: background statement, no test described; cited from earlier work
[1] = Determination of the solubility of the crystalline form A; format: physicochemical; details: 25±2° C., Chinese Pharmacopoeia 2015 terms
Protocol: Test solvents: methanol, acetonitrile, ethanol, isopropanol, a 0.1 mol/L aqueous solution of hydrochloric acid and a 0.1 mol/L aqueous solution of sodium hydroxide. Test method: the investigation was conducted according to Item 15(2) of the General Notices in Volume IV of the Chinese Pharmacopoeia (2015 edition). An appropriate amount of a sample of the crystalline form A prepared in Example 5 (the solvent used in the crystal preparation was isopropanol) was weighed and added to a certain volume of the solvent at 25±2° C. The mixture was shaken strongly for 30 seconds at an interval of 5 minutes. […] It was considered to be completely soluble if none of the particles of the solute was observed.

[2] = DVS study (hygroscopicity) of the crystalline form A; format: physicochemical
Protocol: The experimental conditions for the dynamic vapor sorption (DVS) were as follows: The detection was performed with DVS Intrinsic (SMS) at 25° C. in a cycle-DMDT mode. The hygroscopicity of a sample of the crystalline form A of the compound of Formula (I) was measured through dynamic vapor sorption (DVS): the hygroscopicity thereof was measured at 25° C., 10% humidity gradient in the range of 0%-90%-0%.

[3] = Stability of the crystalline form A at room temperature (XRPD); format: physicochemical; details: 15 days
Protocol: (§1) X′Pert3 Powder diffractometer using Cu target radiation was employed, and the detection was performed at room temperature with Absolute scan. The detection range was 3.5° to 40° with a step size of 0.013° and a dwell time of 50 s, scan time: 1. A sample of the crystalline form A of the compound of Formula (I) was allowed to stand at room temperature, and samples were taken on Day 5 and 15 for XRPD detection.

[4] = Pharmacokinetic experiment of the crystalline form A in rats; format: in vivo; details: both sexes, Sprague-Dawley (SD), rat, blood, 3 mg/kg
Excerpt: Formulation of the test sample for intravenous administration: the sample of Example 5 (the solvent used in the crystal preparation was isopropanol) was taken and dissolved in 5% DMSO+5% Solutol (HS15)+90% normal saline, to obtain the test sample solution for intravenous administration;
Formulation of the test sample for intragastric administration: the sample of Example 5 (the solvent used in the crystal preparation was isopropanol) was taken and suspended in 97.5% of 0.5% methyl cellulose (MC)+2.5% Solutol (HS15) to obtain a suspension, which was used as the test sample for intragastric administration.
12 SD rats were randomly divided into two groups, groups A and B (6 rats per group, half male and half female). The rats in Group A were each given a single intravenous injection of the sample drug; the rats in Group B were each given the sample drug through intragastric administration, and the dosages are both 3 mg/kg. The blood sampling time points for the intravenous and intragastric administration were before administration and 0.083, 0.25, 0.5, 1.0, 2.0, 4.0, 6.0, 8.0, 10, and 24 h after administration.

SD rats = test: Single-dose toxicity in SD rats; format: in vivo
Excerpt: The mortar was washed with a 0.5% methyl cellulose (MC) solution with grinding, until there was no visible residue. The mixture was transferred to a calibrated container, and then diluted with a 0.5% methyl cellulose solution to the volume. The solution was stirred uniformly with a magnetic stirrer to obtain a suspension, which was used as the test sample.
4 groups (10 rats per group, half male and half female) were set in the single-dose toxicity test in SD rats, and they were the vehicle control group and the low-, medium-, and high-dose groups of the crystalline form A of the compound of Formula (I), respectively.

[5] = Stability of the crystalline form A under grinding (XRPD); format: physicochemical; details: ground in a mortar for 5 minutes
Protocol: as §1, with “ground” for “allowed to stand”, “a constant speed in a mortar,” for “room temperature,”, “after the grinding was performed for 2 and” for “on Day”, “minutes, respectively,” for “and 15”

[6] = Determination of the log P value (Sirius T3, pH-metric medium log P); format: physicochemical; details: titration from low to high pH
Protocol: The log P value of a sample of the crystalline form A prepared in Example 5 (the solvent used in the crystal preparation was isopropanol) was measured with the Sirius T3 instrument for physical and chemical profile determination. The Sirius log P test method (pH-metric medium log P) was employed, wherein the pH-metric medium log P determination mode was selected, and the titration order was from low to high pH.

Beagle dogs = test: Single dose toxicity in Beagle dogs; format: in vivo
Protocol: Formulation of the test sample: a required amount of a sample of the crystalline form A of Example 5 (the solvent used in the crystal preparation was isopropanol) was weighed and added to a mortar, polyethylene glycol-15 hydroxystearate (HS15) in an amount of 2.5% of the total volume was added, and the sample was evenly ground. The mortar was washed with a 0.5% methyl cellulose (MC) solution with grinding, until there was no visible residue. The mixture was transferred to a calibrated container, and then diluted with a 0.5% methyl cellulose solution to the volume. The solution was stirred uniformly with a magnetic stirrer to obtain a suspension, which was used as the test sample.
3 groups (4 dogs per group, half male and half female) were set in the single-dose toxicity test in Beagle dogs, and they were the vehicle control group and the low- and high-dose groups of the crystalline form A of the compound of Formula (I).

[7] = Stability of the crystalline form A at a high temperature (XRPD); format: physicochemical; details: 7 days
Protocol: as §1, with “stand under vacuum” for “stand”, “60° C.,” for “room temperature,”, “Day 2,” for “Day”, “7, respectively,” for “15”

[8] = po, SD rats, intragastric, single dose, n = 6
[9] = SD rats, intravenous, single dose, n = 6

Chain of hERG (Q12809 whole entry): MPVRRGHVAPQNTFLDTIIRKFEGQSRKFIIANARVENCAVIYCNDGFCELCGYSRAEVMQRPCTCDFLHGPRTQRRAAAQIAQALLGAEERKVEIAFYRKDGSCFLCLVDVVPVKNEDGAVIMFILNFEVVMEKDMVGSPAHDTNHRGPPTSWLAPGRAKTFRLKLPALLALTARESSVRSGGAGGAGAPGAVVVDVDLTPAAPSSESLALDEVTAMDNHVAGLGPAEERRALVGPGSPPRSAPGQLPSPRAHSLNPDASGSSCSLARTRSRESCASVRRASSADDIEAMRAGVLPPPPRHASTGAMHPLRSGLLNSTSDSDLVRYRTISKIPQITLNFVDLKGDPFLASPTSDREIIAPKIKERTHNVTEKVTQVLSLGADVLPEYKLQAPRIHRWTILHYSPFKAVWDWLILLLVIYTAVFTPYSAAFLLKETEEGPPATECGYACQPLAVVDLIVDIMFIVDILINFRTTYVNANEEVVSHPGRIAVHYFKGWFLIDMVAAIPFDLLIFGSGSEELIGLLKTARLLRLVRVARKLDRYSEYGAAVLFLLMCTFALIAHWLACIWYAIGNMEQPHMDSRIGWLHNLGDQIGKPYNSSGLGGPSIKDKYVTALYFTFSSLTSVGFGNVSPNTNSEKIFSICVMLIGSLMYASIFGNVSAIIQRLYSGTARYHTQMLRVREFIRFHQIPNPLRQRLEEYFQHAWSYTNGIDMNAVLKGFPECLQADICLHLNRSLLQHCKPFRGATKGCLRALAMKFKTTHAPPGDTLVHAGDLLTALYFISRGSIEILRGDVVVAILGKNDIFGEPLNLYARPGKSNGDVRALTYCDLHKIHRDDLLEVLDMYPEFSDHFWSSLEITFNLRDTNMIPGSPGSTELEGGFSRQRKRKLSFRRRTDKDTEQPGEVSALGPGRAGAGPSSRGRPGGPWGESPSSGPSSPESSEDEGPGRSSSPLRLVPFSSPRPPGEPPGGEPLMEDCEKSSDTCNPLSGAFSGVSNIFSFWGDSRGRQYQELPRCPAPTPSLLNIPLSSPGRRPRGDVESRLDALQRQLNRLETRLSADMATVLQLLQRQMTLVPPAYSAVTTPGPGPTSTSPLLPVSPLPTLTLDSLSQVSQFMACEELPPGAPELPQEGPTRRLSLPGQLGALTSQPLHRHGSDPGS

Structure (SMILES): COC(=O)C1=C(CN2CCO[C@H](/C=C/C(=O)O)C2)NC(c2nccs2)=N[C@H]1c1ccc(F)cc1Cl [compound of Formula (I), (E)-3-((R)-4-(((R)-6-(2-chloro-4-fluorophenyl)-5-(methoxycarbonyl)-2-(thiazol-2-yl)-3,6-dihydropyrimidin-4-yl)methyl)morpholin-2-yl)acrylic acid]
- cardiotoxicity (hERG): no cardiotoxicity

Structure (SMILES): COC(=O)C1=C(CN2CCO[C@H](/C=C/C(=O)O)C2)NC(c2nccs2)=N[C@H]1c1ccc(F)cc1Cl [crystalline form A, (E)-3-((R)-4-(((R)-6-(2-chloro-4-fluorophenyl)-5-(methoxycarbonyl)-2-(thiazol-2-yl)-3,6-dihydropyrimidin-4-yl)methyl)morpholin-2-yl)acrylic acid]
- solubility in 0.1 mol/L aqueous solution of hydrochloric acid [1]: sparingly soluble
- solubility in 0.1 mol/L aqueous solution of sodium hydroxide [1]: sparingly soluble
- solubility in acetonitrile [1]: soluble
- solubility in ethanol [1]: soluble
- solubility in isopropanol [1]: slightly soluble
- solubility in methanol [1]: soluble
- weight increase by hygroscopy ([2]; DVS, 25° C., 80% humidity): 0.28%
- hygroscopicity class (Chinese Pharmacopoeia 2015) ([2]; weight increase within 0.2%-2%): slightly hygroscopic
- crystalline form after standing at room temperature (XRPD) [3]: did not change
- bioavailability ([4]; oral, rats, intragastric vs intravenous, calculated based on AUC0-∞, read-out: absolute bioavailability): 62.4%
- AUC(0-inf) [4, 8]: 6490 ± 2950 ng·h/mL
- AUC(0-t) [4, 8]: 6460 ± 2940 ng·h/mL
- Cmax [4, 8]: 3980 ± 1440 ng/mL
- half-life [4, 8]: 60.6 ± 15.6 min
- Tmax ([4]; po, SD rats, intragastric, single dose, n = 6, median (range in next line)): 22.8 min
- AUC(0-inf) [4, 9]: 10400 ± 4500 ng·h/mL
- AUC(0-t) [4, 9]: 10400 ± 4500 ng·h/mL
- Cmax [4, 9]: 9210 ± 2100 ng/mL
- half-life [4, 9]: 52.8 ± 10.8 min
- abnormalities after 14 days (SD rats; intragastric single dose, condition, body weight, food intake, hematology, blood biochemistry, gross anatomy): no abnormalities were observed
- tolerability, single dose (SD rats; intragastric, low-, medium-, high-dose groups, 14 days observation): well tolerated
- crystalline form after grinding (XRPD) [5]: did not change
- logP [6]: 2.4 to 2.6
- tolerability, single dose (Beagle dogs; Beagle dogs, intragastric, low- and high-dose groups, 14 days observation): well tolerated
- abnormalities after 14 days (Beagle dogs; dog, in vivo): no abnormalities were observed
- crystalline form after standing under vacuum at 60° C. (XRPD) [7]: did not change
